# Measured values taken from PMC3554773, “Screening of a Specific Peptide Binding to VPAC1 Receptor from a Phage Display Peptide Library” (PLoS ONE, 2013).
# No end group written: not given here.
# How the values were obtained:
# [1] = target: T1, VPAC1 receptor (CHO-K1/VPAC1 cells) (Homo sapiens, UniProt P32241); assay: in vitro subtractive panning of 12-mer phage display peptide library on CHO-K1/VPAC1 cells, DNA sequencing of clones; format: binding; conditions: 60 phage clones randomly selected after fourth round of panning; three lacked exogenous sequence
# T1 construct: expressed in transfected cells
# T1 sequence (P32241 31-457): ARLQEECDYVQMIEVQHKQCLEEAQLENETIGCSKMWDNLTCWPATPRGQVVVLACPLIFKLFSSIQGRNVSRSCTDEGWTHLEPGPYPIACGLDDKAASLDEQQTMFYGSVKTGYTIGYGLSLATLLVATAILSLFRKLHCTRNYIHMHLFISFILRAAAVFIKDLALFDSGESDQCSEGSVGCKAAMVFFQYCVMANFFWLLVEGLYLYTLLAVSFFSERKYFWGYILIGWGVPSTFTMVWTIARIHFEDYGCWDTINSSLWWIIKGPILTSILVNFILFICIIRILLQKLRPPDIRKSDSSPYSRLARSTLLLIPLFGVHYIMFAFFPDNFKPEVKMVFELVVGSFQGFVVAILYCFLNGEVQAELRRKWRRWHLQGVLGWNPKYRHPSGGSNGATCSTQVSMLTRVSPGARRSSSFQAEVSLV
# [2] = target: T1, VPAC1 receptor (CHO-K1/VPAC1 cells); assay: cellular ELISA, binding of phage clones to CHO-K1/VPAC1 versus wild-type CHO-K1 cells; conditions: 1×10^10 pfu/well, 37°C, 2 h, HRP-anti-M13, glutaral-fixed cells, triplicate, p<0.01
# [3] = target: T1, VPAC1 receptor (CHO-K1/VPAC1 cells); assay: competitive inhibition ELISA: binding of positive phage clone VP2 to CHO-K1/VPAC1 cells, inhibited by synthetic peptide
# Method: Competitive binding inhibition between the positive phage clone and its encoded peptide was evaluated in this study using the competitive inhibition ELISA method. The procedure was similar to that of the cellular ELISA mentioned above in “Cell enzyme-linked immunosorbent assay”. Briefly, CHO-K1/VPAC1 cells were incubated with 100 µl of synthetic peptide encoded by the positive phage clone at various concentrations (0, 0.0001, 0.001, 0.01, 0.1, 1, 10 and 100 µg/ml) in a 96-well plate after it was blocked with 2% BSA. Subsequently, 1×10^10 pfu homologous positive phage clones was added to the cells and incubated at 37°C for 2 h. The unbound phages were washed away, and an HRP-conjugated anti-M13 monoclonal antibody was used to detect the bound phages as described above. The rate of inhibition was calculated using the following formula: rate of inhibition = (A value of inhibition control – A value of inhibition)/A value of inhibition control×100%. An unrelated peptide corresponding to an unrelated phage was used as a negative control.
Sequence,Frequency (number of the peptide sequence appeared in the whole selected phage clones) [1],binding affinity to CHO-K1/VPAC1 cells compared with CHO-K1 cells (OD450 nm) [2],other results
ETVRQAEELFYV [VP7],1,,
TVKYSTLVEWPY [VP1],8,higher affinity to CHO-K1/VPAC1 cells than CHO-K1 cells,
TWKFEPLGTFID [VP4],3,,
GSFHSPLLAYVS [VP12],1,,
TVTFAPLRMWHP [VP15],1,,
DTFHSPLVALVS [VP5],5,higher affinity to CHO-K1/VPAC1 cells than CHO-K1 cells,
TYTFRPLYEPPL [VP17],1,,
GYTFQPLNEWAI [VP18],1,,
GTFHSPLLDHKS [VP14],1,,
GGSIAASELEYY [VP10],2,higher affinity to CHO-K1/VPAC1 cells than CHO-K1 cells,
NSIALINDTHKR [VP3],2,,
YTSHFPLETWPQ [VP6],5,higher affinity to CHO-K1/VPAC1 cells than CHO-K1 cells,
GWLRSPSLLFSN [VP16],2,higher affinity to CHO-K1/VPAC1 cells than CHO-K1 cells,
SFRFFPLDMWPH [VP8],5,higher affinity to CHO-K1/VPAC1 cells than CHO-K1 cells,
HSTLKLGALTNY [VP11],1,,
AYTTVPYMATLP [VP9],1,,
DTGHSPEPGKVP [VP13],1,,
GFRFGALHEYNS [VP2],,,"IC50 of VP2 peptide compared with IC50 of VIP ([3]; inhibition of phage VP2 binding to CHO-K1/VPAC1 cells, VIP value from Figure 5A): significantly lower than the IC50 of VIP; IC50 ([3]; peptide 0-100 µg/ml, 1×10^10 pfu phage VP2, 37°C, 2 h): ~13.2 nM"
